Measurements from patent US11072811B2, “Substrates for covalent tethering of proteins to functional groups or solid surfaces” (PROMEGA CORPORATION, priority 2013, dated 2021).
“Also recorded” adds a separate entry of the source.

Tests used:
[1] = target: T1, glucocorticoid receptor (GR) (Homo sapiens, UniProt P04150); assay: Glucocorticoid receptor competitor assay (fluorescence polarization); type: binding; details: dexamethasone-chloroalkane conjugates; FIG. 7
T1 construct: purchased Life Technology
T1 sequence (P04150 1-777): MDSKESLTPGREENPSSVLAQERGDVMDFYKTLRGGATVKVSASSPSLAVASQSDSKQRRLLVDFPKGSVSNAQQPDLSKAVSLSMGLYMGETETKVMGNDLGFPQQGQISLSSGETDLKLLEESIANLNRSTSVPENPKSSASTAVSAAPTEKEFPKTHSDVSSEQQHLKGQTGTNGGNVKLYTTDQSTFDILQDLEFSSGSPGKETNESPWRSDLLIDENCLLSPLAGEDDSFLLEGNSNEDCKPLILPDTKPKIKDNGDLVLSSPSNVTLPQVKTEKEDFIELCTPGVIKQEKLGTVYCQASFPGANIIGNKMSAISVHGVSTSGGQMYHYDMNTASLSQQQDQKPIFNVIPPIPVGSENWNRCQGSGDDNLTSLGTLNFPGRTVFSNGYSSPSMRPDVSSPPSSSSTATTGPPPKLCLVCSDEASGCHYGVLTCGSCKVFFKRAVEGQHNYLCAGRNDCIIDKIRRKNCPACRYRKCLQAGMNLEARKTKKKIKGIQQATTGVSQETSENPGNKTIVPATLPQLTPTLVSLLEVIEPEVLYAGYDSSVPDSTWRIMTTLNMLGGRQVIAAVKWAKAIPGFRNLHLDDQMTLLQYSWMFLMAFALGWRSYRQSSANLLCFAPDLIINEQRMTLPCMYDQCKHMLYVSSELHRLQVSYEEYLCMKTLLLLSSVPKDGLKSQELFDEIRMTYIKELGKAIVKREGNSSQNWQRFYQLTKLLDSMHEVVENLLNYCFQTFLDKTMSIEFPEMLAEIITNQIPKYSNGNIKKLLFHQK
Text: c) Binding efficiency to the target glucocorticoid receptor (GR) was done using the glucocorticoid receptor competitor assay (Life Technology) as recommended by the manufacturer.

HaloTag® protein [2] = assay: Binding efficiency to HaloTag protein in lysate (chase with fluorescent HaloTag ligand, SDS-PAGE); details: 1 μM, 0-60 min binding; for labeling kinetics / binding efficiency to HaloTag protein in lysate: methotrexate-chloroalkane conjugates, FIG. 3A
Procedure: (§1) a) Binding efficiency to HaloTag® protein in lysate was measured by adding the methotrexate-chloroalkane conjugates to lysate from cells expressing a HaloTag® protein to a final concentration of 1 μM. Following 0-60 mins of binding, the reactions were chased with 1 μM fluorescent HaloTag® ligand. Unbound HaloTag® protein was detected through binding to the fluorescent HaloTag® ligand followed by analysis on SDS-PAGE gel and detection on a fluorescent gel scanner.
as §1, with “adding the dexamethasone-chloroalkane conjugates to” for “adding the methotrexate-chloroalkane conjugates to”, “the fluorescent HaloTag ligand followed” for “the fluorescent HaloTag® ligand followed”

HaloTag® protein [3] = assay: Binding efficiency to HaloTag protein in cells (chase with fluorescent HaloTag ligand, SDS-PAGE); type: cell-based; details: 10 μM
Procedure: b) Binding efficiency to HaloTag® protein in cells was measured by adding the methotrexate-chloroalkane conjugates to cells expressing a HaloTag® protein to a final concentration of 10 μM. Following 0-120 mins of binding, the reactions were chased with 5 μM fluorescent HaloTag® ligand. Unbound HaloTag® protein was detected through binding to the fluorescent HaloTag® ligand followed by cell lysis, analysis on a SDS-PAGE gel and detection on a fluorescent gel scanner.
b) Binding efficiency to HaloTag® protein in cells was measured by adding the dexamethasone-chloroalkane conjugates to cells expressing a HaloTag® protein to a final concentration of 10 μM. Following 0-60 mins of binding, the reaction was chased with 5 μM fluorescent HaloTag ligand. Unbound HaloTag® protein was detected through binding to the fluorescent HaloTag® ligand followed by cell lysis, analysis on SDS-PAGE gel and detection on a fluorescent gel scanner.

[4] = target: T2, NanoLuc-DHFR fusion protein (Homo sapiens, UniProt P00374); assay: Pull-down of NanoLuc-DHFR fusion from living cells onto HALOTAG protein beads; type: cell-based; details: HEK293 cells, 10 uM conjugate, 2 h binding, 45 min capture, release with 150 μM methotrexate; FIG. 4
T2 construct: expressed in transfected cells; host or cells: HEK293
T2 sequence (P00374 1-187): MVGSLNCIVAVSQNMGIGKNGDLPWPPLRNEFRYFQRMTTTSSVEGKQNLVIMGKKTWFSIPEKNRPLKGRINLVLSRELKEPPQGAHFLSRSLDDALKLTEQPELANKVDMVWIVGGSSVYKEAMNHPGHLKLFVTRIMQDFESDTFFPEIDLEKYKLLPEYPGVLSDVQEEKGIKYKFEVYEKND
Procedure: HEK293 cells were plated and transfected using PEI with plasmid DNA encoding a NANOLUC-DHFR fusion in wells of a 96-well plate. The DNA was diluted 1:50 with a promoterless carrier DNA plasmid (pCI) to a final concentration of 80 ng total DNA per well. Twenty-four hours post-transfection, cells were serum starved for additional 24 hours and then treated with […] 10 uM PBI-4848 or PBI-5015 while control cells were not treated with the conjugated drug. Following equilibration binding of 2 h, the media was removed, and the cells quickly washed with PBS and lysed in detergent-based lysis buffer for 10 min. Cell lysates were then transferred to wells of a 96-well plate containing 0.5 μl settled paramagnetic HALOTAG protein beads and incubated with shaking for 45 min. Following binding, the unbound fraction was removed, the HALOTAG protein paramagnetic beads washed, 150 μM unconjugated methotrexate added, and the captured NANOLUC:DHFR specifically released from the beads by competition with the unconjugated methotrexate for 60 min. The released NANOLUC:DHFR (+PBI-5015 or +PBI-4848) and control samples were detected by NANOGLO luciferase detection reagent.

NanoLuc:GR fusion = target: T3, NanoLuc:GR fusion (Homo sapiens, UniProt P04150); assay: Pull-down of NanoLuc:GR fusion from live cells onto HaloTag protein beads; type: cell-based; details: HEK293 cells, 10 μM conjugate, 2 h binding, 45 min capture, release with 150 μM Dexamethasone; FIG. 8
T3 construct: expressed in transfected cells; host or cells: HEK293
T3 sequence (P04150 1-777): T1 sequence (P04150 1-777)
Procedure: HEK293 cells were plated and transfected using PEI with plasmid DNA encoding NanoLuc:GR fusion in wells of a 96-well plate. The DNA was diluted 1:50 with a promoterless carrier DNA plasmid (pCI neo) to a final concentration of 80 ng total DNA per well. Twenty-four hours post-transfection, cells were serum starved for additional 24 hours then incubated with a final concentration of 10 μM PBI-4980 or PBI-4025 while control cells were not treated with the conjugated drug. […] The released NanoLuc:GR (+PBI-4980 or +PBI-4025) and control samples were detected by using the NanoGlo® assay reagent (Promega Corp).

[5] = methotrexate-chloroalkane conjugates, 0-120 min binding, FIG. 3B

Structure (SMILES) | affinity / binding efficiency to glucocorticoid receptor [1] | labeling kinetics / binding efficiency to HaloTag protein in lysate (HaloTag® protein [2]) | cell permeability/binding efficiency to HaloTag protein in cells (HaloTag® protein [3]; [5]) | pull-down of Nluc:DHFR fusion from living cells [4] | binding kinetics to HaloTag protein in lysate (HaloTag® protein [2]; dexamethasone-chloroalkane conjugates, FIG. 6A) | cell permeability/binding efficiency to HaloTag protein in cells (HaloTag® protein [3]; dexamethasone-chloroalkane conjugates, 0-60 min binding, FIG. 6B) | efficiency of Nluc:GR fusion pull down from live cells (NanoLuc:GR fusion)
C[C@@H]1CC2C3CCC4=CC(=O)C=C[C@]4(C)[C@@]3(F)[C@@H](O)C[C@]2(C)[C@@]1(O)C(=O)NCCOCCOCCOCCOCCC(=O)NCCOCCOCCCCCCCl (some centres unmarked) [PBI-4025] | highest affinity; also recorded: best binding efficiency; also recorded: higher affinity |  |  |  |  |  | 
CN(Cc1cnc2nc(N)nc(N)c2n1)c1ccc(C(=O)NC(CCC(=O)NCCOCCOCCCCCCCl)C(=O)O)cc1 (centres unmarked) [PBI-4848] |  | fast labeling kinetics | best cell permeability/binding efficiency; also recorded: higher cell permeability | only PBI-5015 efficiently pulled down |  |  | 
C[C@@H]1CC2[C@@H]3CCC4=CC(=O)C=C[C@]4(C)[C@@]3(F)[C@@H](O)C[C@]2(C)[C@@]1(O)C(=O)NCCCCCNC(=O)OCCOCCOCCOC(=O)NCCOCCOCCCCCCCl (some centres unmarked) [PBI-4980, Dexamethasone Carbamate Chloroalkane] | best binding efficiency |  |  |  | faster binding kinetics | best cell permeability/binding efficiency | significantly higher than via PBI-4025
CN(Cc1cnc2nc(N)nc(N)c2n1)c1ccc(C(=O)NC(CCC(=O)NCCCCCNC(=O)OCCOCCOCCOC(=O)NCCOCCOCCCCCCCl)C(=O)O)cc1 (centres unmarked) [PBI-5015] |  | fast labeling kinetics | good cell permeability and binding efficiency | efficiently pulled down |  |  | 
